Reference: patent US20090246265A1, “ABUSE DETERRENT TRANSDERMAL FORMULATIONS OF OPIATE AGONISTS AND AGONIST-ANTAGONISTS” (AllTranz Inc., priority 2008, published 2009)
Entries after “also recorded” stand apart in the source; their conditions may differ. Counter-ions that a name gives are not always drawn.

Tests used:
[1] = Solubility in the pressure sensitive adhesive matrix; type: physicochemical; settings: Durotak Elite 87-900A PSA
Procedure: Thus, the suspension was mixed and poured to 20 mil thickness.
Thus, the suspension and 3 solutions of NTX prodrugs were mixed and poured to 20 mil thickness.
Three patch formulations for testing were prepared. The patch formulations included naltrexone-HCl, naltrexone-HCl coated with cellulose acetate phthalate and an isobutyryl ester prodrug of naltrexone. The naltrexone-HCl and cellulose acetate phthalate complex was prepared using the methods described in Example 2. The patch formulations also included buprenorphine in a concentration of 2% w/w or 20 mg of buprenorphine per […] of pressure sensitive adhesive. […] The PSA admixture was poured onto Scotch PAK 1022 Release Liner 3.0 mil 3M™, spread to an even 20 mil thickness with an 8 path wet film applicator by Gardco®. The matrices were allowed to dry at 40° C. and finally the Cotran 9715 Film 3M™ as a backing membrane was applied.

[2] = In vitro diffusion (permeation and accumulation) studies through human skin, PermeGear flow through diffusion apparatus
[3] = Release of buprenorphine and naltrexone from patch placed in methanol or ethanol; type: physicochemical; settings: patch with 2% buprenorphine
From the text: Methanol and ethanol are two media that could potentially be used to dissolve a patch for the purpose of extracting the opiate in the patch by a potential abuse. Thus, an antagonist complex such as NTX-CAP should release in a rapid manner in order to be able to block the opiates effect if injected or ingested. FIG. 6 is a representative profile of the release characteristics of naltrexone coated with cellulose acetate phthalate in methanol and ethanol.
This ratio corresponds to the amount of naltrexone necessary to cause a narcotic blockade at the opiate receptors.

[4] = Example 7, NTX-CAP and buprenorphine base bi-layer patch
[5] = Example 7, NTX•HCl and buprenorphine base bi-layer patch
[6] = Example 7, NTX•HCl and buprenorphine base bi-layer patch, 24 h
[7] = Example 7, NTX•HCl and buprenorphine base bi-layer patch, after 24 h
[8] = Example 8, NTX-CAP and buprenorphine base bi-layer patch
[9] = Example 8, NTX•HCl and buprenorphine base bi-layer patch, 24 h
[10] = Example 8, NTX•HCl and buprenorphine base bi-layer patch, after 24 h
[11] = Example 8, NTX•HCl and buprenorphine bi-layer patch, n=1

Compound: CO[C@@]12CC[C@@]3(C[C@@H]1[C@](C)(O)C(C)(C)C)[C@H]1Cc4ccc(O)c5c4[C@@]3(CCN1CC1CC1)[C@H]2O5 [BUP from bi-layer, buprenorphine]
- solubility in pressure sensitive adhesive (matrix) [1]: freely soluble
- Flux [2, 4]: 0.39 ± 0.05 nmol/cm^2/h
- Lag time [2, 4]: 10.6 ± 0.28 h
- Cumulative ([2]; Example 7, NTX-CAP and buprenorphine base bi-layer patch, 24 h): 9.3 ± 1.2 nmol
- Drug in skin ([2]; Example 7, NTX-CAP and buprenorphine base bi-layer patch, after 24 h): 0.43 ± 0.01 µmol/g
- Flux [2, 5]: 0.23 ± 0.06 nmol/cm^2/h
- Lag time [2, 5]: 10.0 ± 2.6 h
- buprenorphine flux, times higher than naltrexone [2, 5]: 11.2 times
- Cumulative [2, 6]: 5.5 ± 0.7 nmol
- Drug in skin [2, 7]: 0.35 ± 0.01 µmol/g
- Cumulative [2, 8]: 24.6 ± 10.8 nmol
- Drug in skin [2, 8]: 0.50 ± 0.04 µmol/g
- Flux [2, 8]: 1.05 ± 0.65 nmol/cm^2/h
- Lag time [2, 8]: 8.2 ± 0.6 h
- total permeation [2, 8]: 11.65 µg
- Cumulative [2, 9]: 18.5 nmol
- Drug in skin [2, 10]: 0.37 µmol/g
- Flux [2, 11]: 0.6 NA* nmol/cm^2/h
- Lag time [2, 11]: 9.5 h

Compound: O=C1CC[C@@]2(O)[C@H]3Cc4ccc(O)c5c4[C@@]2(CCN3CC2CC2)[C@H]1O5 [NTX•HCl, naltrexone hydrochloride]
- solubility in pressure sensitive adhesive (matrix) ([1]; hydrochloride): Neither NTX.HCl nor CAP-NTX were soluble; also recorded: not soluble
- solubility in pressure sensitive adhesive (matrix) ([1]; listed as naltrexone-HCl, hydrochloride): suspensions
- Release ratio of BUP:NTX ([3]; ethanol, 0 min): 9.9
- Release ratio of BUP:NTX ([3]; ethanol, 10 min): 7.2
- Release ratio of BUP:NTX ([3]; ethanol, 30 min): 4.6
- Release ratio of BUP:NTX ([3]; ethanol, 60 min): 4.1
- Release ratio of BUP:NTX ([3]; methanol, 0 min): 7.8
- Release ratio of BUP:NTX ([3]; methanol, 10 min): 6.5
- Release ratio of BUP:NTX ([3]; methanol, 30 min): 6.5
- Release ratio of BUP:NTX ([3]; methanol, 60 min): 6.1
- Flux [2, 5]: 0.02 ± 0.03 nmol/cm^2/h
- Lag time [2, 5]: 14.6 NA* h
- Cumulative ([2]; Example 7, NTX•HCl and buprenorphine base bi-layer patch, 24 h, listed as NTX•HCl from bi-layer, hydrochloride): 0.3 ± 0.5 nmol
- Drug in skin [2, 7]: 0.29 ± 0.03 µmol/g
- Cumulative ([2]; Example 8, NTX•HCl and buprenorphine base bi-layer patch, 24 h, listed as NTX•HCl from bi-layer, hydrochloride): 2.3 nmol
- Drug in skin [2, 10]: 0.30 µmol/g
- Flux [2, 11]: 0.0 NA* nmol/cm^2/h

Compound: O=C1CC[C@@]2(O)[C@H]3Cc4ccc(O)c5c4[C@@]2(CCN3CC2CC2)[C@H]1O5 [naltrexone]
- solubility in pressure sensitive adhesive (matrix) [1]: not soluble
- Cumulative ([2]; Example 6, bi-layer patch with NTX only, 24 hours): 7.3 nmol
- Cumulative [2, 6]: 0.3 nmol
- Cumulative [2, 9]: 2.3 nmol
